Tests used:
DERL-7 (IL-2 2.5 ng/mL) [1] = test: percent inhibition of viability; higher = more inhibition; settings: 72 h
KHYG-1 (IL-2 2.5 ng/mL) [2] = test: as above; settings: 72 h
[3] = system: normal primary NK cells, pool 2 (3 donors) (IL-2 2.5 ng/mL); test: as above; settings: 72 h
SNK-6 (IL-2 2.5 ng/mL) [4] = test: as above; settings: 72 h
NK-YS (IL-2 2.5 ng/mL) [5] = test: as above; settings: 72 h
IMC-1 (IL-2 20 ng/mL) [6] = test: as above; settings: 72 h
[7] = system: normal primary NK cells, pool 1 (3 donors), resting (IL-2 0 ng/mL); test: as above; settings: 72 h
YT (IL-2 2.5 ng/mL) [8] = test: as above; settings: 72 h
[9] = system: normal primary NK cells, pool 1 (3 donors) (IL-2 2.5 ng/mL); test: as above; settings: 72 h
KAI3 (IL-2 2.5 ng/mL) [10] = test: as above; settings: 72 h
[11] = system: normal primary NK cells, pool 3 (3 donors) (IL-2 2.5 ng/mL); test: as above; settings: 72 h
NK-92 (IL-2 2.5 ng/mL) [12] = test: as above; settings: 72 h
NKL (IL-2 2.5 ng/mL) [13] = test: as above; settings: 72 h
[14] = system: normal NK cells expanded with K562-aAPC; test: drug sensitivity score (DSS) (DSS units); higher = more sensitive; extreme values may be limits of the assay; settings: 72 h; IL-2 2.5 ng/mL
Procedure: (§1)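 Drug sensitivity and resistance testing on K562-aAPC-expanded normal NK cells: 5 concentrations (10-fold steps over a 10,000-fold range), 72 h at 37 °C, viability by CellTiter-Glo normalised to DMSO and benzethonium chloride controls; DSS from the fitted curve.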

DERL-7 (IL-2 2.5 ng/mL) [15] = test: as above; settings: 72 h
KHYG-1 (IL-2 2.5 ng/mL) [16] = test: as above; settings: 72 h
[17] = system: normal primary NK cells, pool 2 (3 donors) (IL-2 2.5 ng/mL); test: as above; settings: 72 h
SNK-6 (IL-2 2.5 ng/mL) [18] = test: as above; settings: 72 h
NK-YS (IL-2 2.5 ng/mL) [19] = test: as above; settings: 72 h
IMC-1 (IL-2 20 ng/mL) [20] = test: as above; settings: 72 h
[21] = system: normal primary NK cells, pool 1 (3 donors), resting (IL-2 0 ng/mL); test: as above; settings: 72 h
YT (IL-2 2.5 ng/mL) [22] = test: as above; settings: 72 h
[23] = system: normal primary NK cells, pool 1 (3 donors) (IL-2 2.5 ng/mL); test: as above; settings: 72 h
KAI3 (IL-2 2.5 ng/mL) [24] = test: as above; settings: 72 h
[25] = system: normal primary NK cells, pool 3 (3 donors) (IL-2 2.5 ng/mL); test: as above; settings: 72 h
NK-92 (IL-2 2.5 ng/mL) [26] = test: as above; settings: 72 h
NKL (IL-2 2.5 ng/mL) [27] = test: as above; settings: 72 h
[28] = system: normal NK cells expanded with K562-aAPC; test: percent inhibition of viability; higher = more inhibition; settings: 72 h, IL-2 2.5 ng/mL
Procedure: as §1

C[C@@H]1C[C@H]2O[C@@H]2/C=C\C=C\C(=O)Cc2c(Cl)c(O)cc(O)c2C(=O)O1 [Radicicol] (max concentration tested 10000 nM)
percent inhibition of viability [%]
Settings | 1 nM | 10 nM | 100 nM | 1000 nM | 10000 nM
DERL-7 (IL-2 2.5 ng/mL) [1] | -0.88 | 14.3 | 79.4 | 100 | 101
IMC-1 (IL-2 20 ng/mL) [6] | -2.78 | 3.67 | 0.43 | 101 | 101
KAI3 (IL-2 2.5 ng/mL) [10] | 1.19 | 9.86 | 58.6 | 99.8 | 94.4
KHYG-1 (IL-2 2.5 ng/mL) [2] | 0.9 | 2.76 | 13.1 | 101 | 110
NK-92 (IL-2 2.5 ng/mL) [12] | -1.96 | -4.16 | 34.1 | 99.2 | 104
NK-YS (IL-2 2.5 ng/mL) [5] | 3.72 | 7.15 | 24.6 | 93.4 | 99.7
NKL (IL-2 2.5 ng/mL) [13] | -1.4 | 4.63 | 30.1 | 85.8 | 81.6
SNK-6 (IL-2 2.5 ng/mL) [4] | 8 | 13.2 | 49.9 | 96.8 | 78.6
YT (IL-2 2.5 ng/mL) [8] | -1.95 | 7.65 | 16.1 | 64.4 | 91.6
[3] | -13.3 | -1.53 | 60.7 | 82 | 91.3
[7] | 9.89 | -3.46 | 22.4 | 41.1 | 75.4
[9] | 5.96 | -3.33 | 44.2 | 80.8 | 94.1
[11] | -8.94 | -10.4 | 38 | 82.1 | 91.5
[28] | -4.44 | 1.88 | 51 | 98.6 | 80.6

Settings | drug sensitivity score
DERL-7 (IL-2 2.5 ng/mL) [15] | 28.9
IMC-1 (IL-2 20 ng/mL) [20] | 18.1
KAI3 (IL-2 2.5 ng/mL) [24] | 25.1
KHYG-1 (IL-2 2.5 ng/mL) [16] | 20.2
NK-92 (IL-2 2.5 ng/mL) [26] | 22.8
NK-YS (IL-2 2.5 ng/mL) [19] | 20
NKL (IL-2 2.5 ng/mL) [27] | 19.4
SNK-6 (IL-2 2.5 ng/mL) [18] | 23.3
YT (IL-2 2.5 ng/mL) [22] | 14.2
[14] | 23.9
[17] | 23.6
[21] | 10.6
[23] | 20.8
[25] | 20.5

Cc1sc2c(c1C)C(c1ccc(Cl)cc1)=N[C@@H](CC(=O)Nc1ccc(O)cc1)c1nnc(C)n1-2 [OTX015] (max concentration tested 10000 nM)
percent inhibition of viability [%]
Settings | 1 nM | 10 nM | 100 nM | 1000 nM | 10000 nM
DERL-7 (IL-2 2.5 ng/mL) [1] | 1.92 | 24 | 62 | 95.8 | 100
IMC-1 (IL-2 20 ng/mL) [6] | -7.07 | -8.73 | 1.26 | 73.2 | 97.4
KAI3 (IL-2 2.5 ng/mL) [10] | 3.12 | -12.4 | 6.28 | 43.9 | 56.6
KHYG-1 (IL-2 2.5 ng/mL) [2] | -1.24 | -0.67 | 38.7 | 91 | 106
NK-92 (IL-2 2.5 ng/mL) [12] | -10.2 | -31 | -32.9 | 22.6 | 36.9
NK-YS (IL-2 2.5 ng/mL) [5] | -0.13 | 1.91 | 28.4 | 62.4 | 81.9
NKL (IL-2 2.5 ng/mL) [13] | 6.07 | 1.36 | 45.3 | 69.8 | 73.4
SNK-6 (IL-2 2.5 ng/mL) [4] | 15.4 | 3.9 | 54.7 | 66.5 | 49.5
YT (IL-2 2.5 ng/mL) [8] | -1.39 | -5.05 | 12.7 | 50.1 | 56.8
[3] | -6.93 | 6.42 | 15.3 | 54.1 | 76.5
[7] | -3.45 | 11.8 | 18.6 | 34.9 | 49.6
[9] | -1.64 | 12.5 | 32.6 | 59.5 | 80.1
[11] | -1.79 | 8.04 | 9.85 | 28.3 | 57.8
[28] | -2.53 | -1.01 | 4.29 | 35.6 | 59.9

Settings | drug sensitivity score
DERL-7 (IL-2 2.5 ng/mL) [15] | 26.7
IMC-1 (IL-2 20 ng/mL) [20] | 13.8
KAI3 (IL-2 2.5 ng/mL) [24] | 8.88
KHYG-1 (IL-2 2.5 ng/mL) [16] | 21.6
NK-92 (IL-2 2.5 ng/mL) [26] | 4.42
NK-YS (IL-2 2.5 ng/mL) [19] | 15.2
NKL (IL-2 2.5 ng/mL) [27] | 18.9
SNK-6 (IL-2 2.5 ng/mL) [18] | 19.3
YT (IL-2 2.5 ng/mL) [22] | 10.8
[14] | 7.54
[17] | 12.1
[21] | 8.82
[23] | 15.7
[25] | 6.65

— the supplement of paper PMC5908809
